{"source": "paper PMC12799407", "about": "“Differential RELA and GR recruitment to the BIRC3/BIRC2 locus: Molecular insight as to combinatorial regulation by proinflammatory cytokines and glucocorticoid” (Molecular Pharmacology, 2025)", "key": {"[1]": {"test_system": "R8 reporter", "experiment": "R8 luciferase reporter stably transfected in A549 cells", "procedure": "(§2) Data were assumed to be normally distributed and, unless otherwise indicated, are presented as means ± SD with scatterplots showing individual values. With the exception of pEC50 values, numerical values in tables and text are provided to one decimal place, or where appropriate 2 significant figures of accuracy. […] Multiple comparisons were made using one-way ANOVA with Tukey’s or Dunnett’s post hoc tests, as appropriate. Comparisons between 2 groups were performed by 2-tailed, paired Student’s t test. The number of independent experiments (N) is indicated in each graph and, being exploratory, sample sizes were not prespecified. […] GraphPad Prism software (version 11; Dotmatics) and/or the R package “ggplot2” was used for graph plotting and statistical analyses. Heat maps were generated using the R package “pheatmap.” Concentration-response relationships were fitted using the 4-parameter model that assumed symmetric variance or using the Gaddum-Schild model of competitive antagonism, as described previously.[43] Variance in pEC50, EMax, or pA2 are provided by Prism as mean ±SE, whereas all curves are plotted as means ±SD (but without scatterplots)."}, "[2]": {"test_system": "R2 reporter", "experiment": "R2 luciferase reporter (BIRC3/BIRC2 locus) stably transfected in A549 cells", "format": "cell-based, human", "conditions": "R2 reporter; for pA2 (Schild analysis): Org34517 1 μM", "procedure": "Data were assumed to be normally distributed and, unless otherwise indicated, are presented as means ± SD with scatterplots showing individual values. […] Multiple comparisons were made using one-way ANOVA with Tukey’s or Dunnett’s post hoc tests, as appropriate. Comparisons between 2 groups were performed by 2-tailed, paired Student’s t test. The number of independent experiments (N) is indicated in each graph and, being exploratory, sample sizes were not prespecified. […] Heat maps were generated using the R package “pheatmap.” Concentration-response relationships were fitted using the 4-parameter model that assumed symmetric variance or using the Gaddum-Schild model of competitive antagonism, as described previously.[43] Variance in pEC50, EMax, or pA2 are provided by Prism as mean ±SE, whereas all curves are plotted as means ±SD (but without scatterplots). Because all analyses were exploratory and were not designed to test prespecified statistical null hypotheses, stated P values should be viewed as being descriptive rather than as hypothesis testing."}, "[3]": {"test_system": "BIRC3 mRNA", "experiment": "qPCR of BIRC3 mRNA in A549 cells", "format": "cell-based, human", "description": "(§1) Following treatments, total RNA was extracted and 500 ng used for cDNA synthesis according to standard procedures.[34] After 1:5 dilution, cDNA (2.5 μL) was analyzed by qPCR (StepOnePlus, Applied […] or QuantStudio3, Thermo Fisher Scientific) with Fast SYBR Green Master Mix (4385618, Thermo Fisher Scientific). Amplification conditions and primers specific for BIRC3, BIRC2, and glyceraldehyde-3-phosphate dehydrogenase mRNAs were as described.[9] In each case, relative cDNA concentrations were obtained from standard curves generated by serial dilution of a stimulated cDNA sample that was analyzed in parallel with the experimental samples. Primer specificity was assessed by melt curve analysis where a single peak in the change of fluorescence with temperature was taken to indicate specificity."}, "[4]": {"test_system": "NF-κB reporter", "design": "method as in PMID 17322026, PMID 37863662, PMID 38941070", "conditions": "read-out: EC50, inhibition of IL-1β-induced NF-κB reporter activity; cited from earlier work"}, "[5]": {"test_system": "R4 reporter", "experiment": "R4 luciferase reporter stably transfected in A549 cells", "format": "cell-based, human", "procedure": "as §2"}, "[6]": {"test_system": "BIRC2 mRNA", "experiment": "qPCR of BIRC2 mRNA in A549 cells", "format": "cell-based, human", "conditions": "concentration series; IL-1β 2 h (Fig. 6C)", "description": "as §1"}, "[7]": {"test_system": "R0 reporter", "experiment": "R0 luciferase reporter stably transfected in A549 cells", "format": "cell-based, human", "conditions": "IL-1β 1 ng/mL, 6 h (Fig. 3B,C)", "procedure": "as §2"}, "[8]": {"test_system": "R5 reporter", "experiment": "R5 luciferase reporter stably transfected in A549 cells", "format": "cell-based, human", "conditions": "R5 reporter", "procedure": "as §2"}, "[9]": {"test_system": "R7 reporter", "experiment": "R7 luciferase reporter stably transfected in A549 cells", "format": "cell-based, human", "procedure": "as §2"}, "[10]": {"test_system": "RELA recruitment to CXCL8", "experiment": "ChIP-qPCR of RELA recruitment to CXCL8 in A549 cells", "format": "cell-based, human", "conditions": "IL-1β 1 ng/mL, 1 hour", "procedure": "After cell treatments, formaldehyde (PI28906, Thermo Fisher Scientific) was added to a final concentration of 1% for 10 minutes. […] Following cytoplasmic and then nuclear lysis, lysates were sonicated with 30 high-power bursts in a 30 seconds on-off cycle at 4 °C using a Bioruptor (Diagenode). Antibodies: GR, GR-356,[36] RELA (NF-κB p65, D14E12, #8242, Cell Signaling Technologies); RNA polymerase 2 (RNAP2) (Rpb1 NTD D8L4Y, #14958, Cell Signaling Technologies) used for ChIP were preincubated with protein G magnetic Dynabeads (10004D, Thermo Fisher Scientific) overnight at 4 °C and beads were washed as previously described. Nuclear lysates were then incubated with the antibody-coated beads overnight prior to extensive washing. Following reversal of crosslinks, DNA was purified with a ChIP DNA Clean & Concentrator kit (D5205, Zymo Research). Fast SYBR Green Master Mix (Thermo Fisher Scientific) was used in standard quantitative polymerase chain reaction (qPCR) reactions to detect DNA regions of interest. […] Relative occupancy at each region was calculated as ΔΔ threshold cycle (CT) after normalization to the geometric mean of the threshold cycle values for 3 negative control regions (Gene symbols: OLIG3, MYOD1, and MYOG)."}, "[11]": {"test_system": "R3 reporter", "experiment": "R3 luciferase reporter stably transfected in A549 cells", "format": "cell-based, human", "conditions": "IL-1β 1 ng/mL, 6 h (Fig. 3B,C)", "procedure": "Data were assumed to be normally distributed and, unless otherwise indicated, are presented as means ± SD with scatterplots showing individual values. […] Multiple comparisons were made using one-way ANOVA with Tukey’s or Dunnett’s post hoc tests, as appropriate. Comparisons between 2 groups were performed by 2-tailed, paired Student’s t test. The number of independent experiments (N) is indicated in each graph and, being exploratory, sample sizes were not prespecified. […] GraphPad Prism software (version 11; Dotmatics) and/or the R package “ggplot2” was used for graph plotting and statistical analyses. Heat maps were generated using the R package “pheatmap.” Concentration-response relationships were fitted using the 4-parameter model that assumed symmetric variance or using the Gaddum-Schild model of competitive antagonism, as described previously.[43] Variance in pEC50, EMax, or pA2 are provided by Prism as mean ±SE, whereas all curves are plotted as means ±SD (but without scatterplots)."}, "[12]": {"conditions": "R8 reporter, IL-1β, naïve (Table 1), n.r. = no significant response"}, "[13]": {"conditions": "R8 reporter, IL-1β, naïve, budesonide series (Supplemental Table 1), n.r. = no significant response"}, "[14]": {"conditions": "IL-1β, naïve, n.r. = no significant response"}}, "note": "Values joined by “and” are separate entries in the source; they are usually repeats but may differ in a detail not shown here. Equal values may be shown once.", "data": [{"compound": "O=C(Nc1cc(Cl)cc2c1[nH]c1cnccc12)c1cccnc1", "note": "[PS-1145, N-(6-chloro-9h-pyrido[3,4-b]indol-8-yl)-3-pyridinecarboxamide]", "values": [{"measurement": "inhibition at 30 µM", "setting": "[1]; Homo sapiens, A549, read-out: inhibition of IL-1β-plus-dexamethasone-induced R8 reporter activity", "result": "> 60", "unit": "%"}, {"measurement": "inhibition of IL-1β-plus-dexamethasone-induced reporter activity", "setting": "[2]; inhibitor 30 μM (Fig. 6A)", "result": "unaffected"}, {"measurement": "reduction in reporter activity induced by dexamethasone", "setting": "[2]; inhibitor 30 μM, dexamethasone 1 μM (Fig. 6A)", "result": "unaffected"}, {"measurement": "EC50", "setting": "[3]; Homo sapiens, A549, 2 h, IL-1β-induced BIRC3 mRNA, 2 h", "result": 2750, "unit": "nM"}, {"measurement": "repression of IL-1β-induced BIRC3 mRNA", "setting": "[3]; at 30 μM, IL-1β 2 h", "result": "~54", "unit": "%"}, {"measurement": "EC50", "setting": "[4]", "result": "1000 to 2000", "unit": "nM"}, {"measurement": "reduction of dexamethasone-induced R4 reporter activity", "setting": "[5]; inhibitor 30 μM, dexamethasone 1 μM", "result": 24.5, "unit": "%"}, {"measurement": "effect on IL-1β-induced BIRC2 mRNA expression", "setting": "[6]", "result": "no effect on IL-1β-induced expression until a concentration of 100 μM"}]}, {"compound": "IL-1β: Recombinant human IL-1β (R&D Systems), proinflammatory cytokine", "values": [{"measurement": "EMax (Fold ± SE)", "setting": "[1]; R8 reporter, IL-1β + Budesonide (300 nM)", "result": 9.3, "unit": "Fold"}, {"measurement": "EMax (Fold ± SE)", "setting": "[1]; R8 reporter, IL-1β + dexamethasone (1 μM), 6 h", "result": "16.5 ± 1.0", "unit": "Fold"}, {"measurement": "reporter activity, fold", "setting": "[1]; R8 reporter, IL-1β alone (Fig. 3I)", "result": "1.2 ± 0.3", "unit": "fold"}, {"measurement": "EMax (Fold ± SE)", "setting": "[1]; [12]", "result": "n.r."}, {"measurement": "pEC50 (−log[g/ mL] ± SE)", "setting": "[1]; [12]", "result": "n.r."}, {"measurement": "EMax (Fold ± SE)", "setting": "[1]; [13]", "result": "n.r."}, {"measurement": "pEC50 (-log[g/ml] ±SE)", "setting": "[1]; [13]", "result": "n.r."}, {"measurement": "reporter activity, fold of no stimulation ± SD", "setting": "[1]; R8 reporter, dexamethasone 1 μM, IL-1β 1 ng/mL or both, 6 h (Fig. 3C)", "result": "1.3 ± 0.7", "unit": "fold"}, {"measurement": "EMax (Fold ± SE)", "setting": "[2]; IL-1β + dexamethasone (1 μM), 6 h", "result": "3.8 ± 0.2", "unit": "Fold"}, {"measurement": "reporter activity, fold", "setting": "[2]; IL-1β at 1 ng/mL in the presence of dexamethasone (1 μM) (Fig. 3F)", "result": "4.0 ± 1.1", "unit": "fold"}, {"measurement": "EMax (Fold ± SE)", "setting": "[2]; IL-1β concentration-response, naïve, n.r. = no significant response", "result": "n.r."}, {"measurement": "pEC50 (−log[g/ mL] ± SE)", "setting": "[2]; [14]", "result": "n.r."}, {"measurement": "EMax (Fold ± SE)", "setting": "[5]; R4 reporter, IL-1β + Budesonide (300 nM)", "result": 4.8, "unit": "Fold"}, {"measurement": "EMax (Fold ± SE)", "setting": "[5]; R4 reporter, IL-1β + dexamethasone (1 μM), 6 h", "result": "4.3 ± 0.1", "unit": "Fold"}, {"measurement": "EMax (Fold ± SE)", "setting": "[5]; R4 reporter, IL-1β, naïve, 6 h (Table 1)", "result": "3.5 ± 0.1", "unit": "Fold"}, {"measurement": "EMax (Fold ± SE)", "setting": "[5]; R4 reporter, IL-1β, naïve, budesonide series (Supplemental Table 1)", "result": 3.6, "unit": "Fold"}, {"measurement": "reporter activity, fold of no stimulation ± SD", "setting": "[5]; R4 reporter, dexamethasone 1 μM, IL-1β 1 ng/mL or both, 6 h (Fig. 3C)", "result": "3.3 ± 1.9", "unit": "fold"}, {"measurement": "reporter activity, fold of not stimulated", "setting": "[5]; R4 reporter, naïve cells, dexamethasone 1 μM, IL-1β 1 ng/mL or both, 6 h (Fig. 5C)", "result": "2.8 ± 0.7", "unit": "fold"}, {"measurement": "reporter activity, fold of no stimulation ± SD", "setting": "[7]", "result": "1.6 ± 0.5", "unit": "fold"}, {"measurement": "EMax (% of 1 μM dexamethasone ± SE)", "setting": "[8]; IL-1β + dexamethasone (1 μM): inhibition of dexamethasone-induced activity, % of 1 μM dexamethasone", "result": "15.1% ± 3.1"}, {"measurement": "EMax", "setting": "[8]; [14]", "result": "n.r."}, {"measurement": "pEC50 (−log[g/ mL] ± SE)", "setting": "[8]; [14]", "result": "n.r."}, {"measurement": "reporter inducibility, fold", "setting": "[9]; IL-1β 1 ng/mL (Fig. 6A)", "result": 2.3, "unit": "fold"}, {"measurement": "reporter inducibility, fold", "setting": "[9]; IL-1β 1 ng/mL, 6 h (Fig. 5C)", "result": "2.0 ± 0.9", "unit": "fold"}, {"measurement": "reporter activity, fold of no stimulation ± SD", "setting": "[9]; dexamethasone 1 μM, IL-1β 1 ng/mL or both, 6 h (Fig. 3C)", "result": "2.0 ± 0.7 fold and 2.0 fold"}, {"measurement": "recruitment of RELA to CXCL8, fold", "setting": "[10]", "result": "48 ± 11", "unit": "fold"}, {"measurement": "reporter activity, fold of no stimulation ± SD", "setting": "[11]", "result": "1.4 ± 0.3", "unit": "fold"}]}, {"compound": "CC#C[C@]1(O)CCC2C3CCC4=CC(=O)CCC4=C3[C@@H](c3ccc4c(c3)OCO4)C[C@@]21C", "note": "(some centres unmarked) [Org34517]", "values": [{"measurement": "IL-1β-plus-dexamethasone-induced reporter activity in the presence of Org34517, fold", "setting": "[1]; R8 reporter, Org34517 1 μM", "result": 6.3, "unit": "fold"}, {"measurement": "dexamethasone-induced reporter activity in the presence of Org34517, fold", "setting": "[1]; R8 reporter, Org34517 1 μM, dexamethasone 1 μM", "result": 1.4, "unit": "fold"}, {"measurement": "pA2 (Schild analysis)", "setting": "[1]; R8 reporter, antagonism of dexamethasone + IL-1β, Org34517 1 μM", "result": "8.14 ± 0.11"}, {"measurement": "pA2 (Schild analysis)", "setting": "[1]; R8 reporter, antagonism of dexamethasone, Org34517 1 μM", "result": "8.14 ± 0.11"}, {"measurement": "pA2 (Schild analysis)", "setting": "[2]; antagonism of dexamethasone + IL-1β", "result": 7.99}, {"measurement": "pA2 (Schild analysis)", "setting": "[2]; antagonism of dexamethasone, consistent with antagonism at GR", "result": 7.71}, {"measurement": "effect on induced R4 reporter activity", "setting": "[5]; Org34517 1 μM, P ≤ .05 and .01", "result": "reduced"}, {"measurement": "dexamethasone-induced luciferase activity in the presence of Org34517, fold", "setting": "[8]; Org34517 1 μM, dexamethasone 1 μM", "result": 1.7, "unit": "fold"}, {"measurement": "pA2 (Schild analysis)", "setting": "[8]; antagonism of dexamethasone, Org34517 1 μM", "result": "8.33 ±0.14"}]}]}
